Reference: PMC11087398, “Evaluation of 1,10-phenanthroline-based hydroxamate derivative as dual histone deacetylases/ribonucleotide reductase inhibitor with antitumor activities” (DARU Journal of Pharmaceutical Sciences, 2024)
Read-outs that look alike come from different tables or passages of the source.

Columns and labels:
[1] = tested on: HepG2; test: MTT cell viability assay; type: cell-based, human; details: mean ± SD, read-out: Antiproliferative activity IC50, HepG2
Procedure: (§1) Human cancer cells (SiHa, HepG2, MCF7, Cal27) were obtained from ATCC, while foreskin fibroblast cells were generated at the Manipal School of Life Sciences. Cells were cultured in DMEM with 10% FBS, maintained in an Eppendorf CellXpert® C170 incubator at 37 °C with 5% CO2, and medium was renewed every 48–72 h.
(§2) Cancer cells (1 × 10^5 cells/mL) and fibroblast cells (5 × 10^4 cells/mL) were seeded in 96-well plates. Test compounds, dissolved in DMSO and diluted in DMEM with 10% FBS, were treated for 48 h. MTT (5 mg/mL) was added, and after 4 h, absorbance was measured at 570 and 630 nm using a VARIOSKAN™ 3001 multimode multiplate reader.

[2] = tested on: MCF7; test: MTT cell viability assay; type: cell-based, human; details: mean ± SD, read-out: Antiproliferative activity IC50, MCF7
Procedure: as §1, §2

[3] = tested on: SiHa; test: MTT cell viability assay; type: cell-based, human; details: 48 h, mean ± SD, read-out: Antiproliferative activity IC50, SiHa
Procedure: as §1, §2

[4] = tested on: Cal27; test: MTT cell viability assay; type: cell-based, human; details: mean ± SD, read-out: Antiproliferative activity IC50, Cal27
Procedure: as §1, §2

[5] = tested on: foreskin fibroblast cells; test: MTT cell viability assay; type: cell-based; details: 48 h, normal human fibroblast cells, mean ± SD, read-out: Antiproliferative activity IC50, Fibroblast
Procedure: as §1, §2

[6] = tested on: SiHa cells; test: Anchorage-dependent colony formation assay; type: cell-based, human; details: IC50 concentration of each compound
Procedure: SiHa cells (500 cells/well) were seeded in 6 cm plates. After 24 h, cells were treated with the IC50 concentration of test compounds and incubated for 21 days with media changes every three days. On day 21, colonies were stained with 0.4% crystal violet for 10 min, washed twice with PBS, and then counted.

[7] = tested on: HDAC (SiHa cell nuclear extracts); test: In vitro fluorescent HDAC assay; type: biochemical, human; details: substrate Boc-Lys(Ac)-AMC, read-out: HDAC inhibitory activity IC50
Procedure: In a black 96-well plate, HDAC assay buffer, varied concentrations of test compounds, and SiHa cell nucleus extract were combined and incubated for 30 min. The enzymatic reaction commenced with the addition of the fluorescent substrate, Boc-Lys(Ac)-AMC, and lasted for 2 h at 37 °C. Reaction termination involved adding a developer, followed by an additional incubation at room temperature for 10–15 min. Fluorescence intensity was assessed using a VARIOSKAN™ 3001 multimode multiplate reader at an excitation wavelength of 354 nm and emission wavelength of 450 nm.

[8] = tested on: Acetyl-Histone H3 in SiHa cells; test: Western blot of acetylated histone H3; type: cell-based, human; details: PA 10 and 20 µM, 48 h
Procedure: SiHa cells (2 × 10^5 cells/well) were cultured in 6-well plates, treated with varied concentrations of test compounds for 48 h, and lysed in RIPA buffer. After centrifugation, protein content was quantified using Bradford assay. Protein extracts were subjected to SDS-PAGE and were transferred to the nitrocellulose membrane. Following blocking, membranes were probed with CST antibodies (Acetyl-Histone H3, B-Actin) at 1:3000 dilution and secondary anti-rabbit antibodies (1:5000 dilution). iBright™ CL1500 Imaging System captured the images.

[9] = tested on: SiHa cells; test: Suppression of cytotoxicity by iron supplementation (FAC co-administration, MTT); type: cell-based, human; details: PA at IC50 with FAC 25, 50, 100 µM, MTT after 48 h
Procedure: To confirm the intracellular Fe^3+ chelation ability of PA, three different concentrations (25, 50, 100 µM) of ferric ammonium citrate (FAC) with PA (IC50) were co-administered in SiHa cells, and the cell viability was assessed using MTT after 48 h.

[10] = Partition coefficient 1-octanol/water; type: physicochemical; details: 1-octanol/water (MOPS buffer), pH 7.4; read-out: log (Kpart7.4), partition coefficient
Procedure: The partition coefficient (Kpart) of PA was determined in a 1-octanol/water system. 1-octanol was added to MOPS buffer containing PA (IC50), and OD at 276 nm was measured before and after each addition. Kpart values were calculated..

[11] = tested on: RR (3H-thymidine incorporation into DNA of SiHa cells); test: Inhibition of DNA synthesis (3H-thymidine incorporation) as RR activity; type: cell-based; details: Homo sapiens, 48 h treatment
Procedure: SiHa cells (5 × 10^6) were treated with varying test compound concentrations for 48 h. Following incubation, cells were pulsed with 5 nM ^3H-thymidine for 30 min at 37 °C. After collection, washing, and total DNA extraction, radioactivity was quantified as counts per min (CPM) using a Tri-carb 2900TR liquid scintillation (Perkin Elmer, USA).

[12] = tested on: SiHa cells; test: Cell cycle analysis (propidium iodide flow cytometry); type: cell-based, human; details: IC50 concentration, 48 h
Description: After trypsinization, cells were fixed in 70% ethanol, treated with RNase-A, stained with propidium iodide, and analyzed using the Partec CyFlow Space with FloMax software (Germany).

[13] = tested on: intracellular dNTP levels in SiHa cells; test: dNTP pool analysis (HPLC); type: cell-based, human; details: IC50 concentration
Procedure: Harvested duplicate samples (1 million cells each) were washed with ice-cold PBS, and an extraction solution (6.5: 3.5 of acetonitrile and water mixture with 100 mM formic acid) was added. After incubation and centrifugation, the solution was lyophilized, reconstituted in 100 µL HPLC buffer A, and analyzed on a Waters Symmetry C18 column using HPLC. A stepwise gradient of Buffer A and B was employed, with detection at 260 and 280 nm, as mentioned by Crona et al., in 2016 [34]. Quantification was based on peak area measurements in the chromatogram, providing relative quantification of the analyzed components.

[14] = tested on: SiHa cells; test: Apoptosis assay (Annexin V/propidium iodide flow cytometry); type: cell-based, human; details: 48 h
Procedure: SiHa cells were cultured at a density of 1 × 10^6 cells/mL in 10 cm plates. Upon reaching 80% confluency, cells were subjected to 48 h treatment with test compounds (IC50 and IC70). Following two PBS washes, trypsinization, and suspension in Annexin V binding buffer, cells were incubated, stained with propidium iodide, and analyzed for apoptosis using Apoptosis Detection Kit I and Partec CyFlow Space with FloMax software (Germany).

[15] = tested on: SiHa cells; test: In vitro cell migration (scratch) assay; type: cell-based, human; details: IC50 concentration, 48 h post-wounding, control group 19.64%
Procedure: SiHa cells were cultured in 6-well plates using DMEM with 10% FBS until they formed a monolayer. A scratch was done on the cell monolayer by using a sterile 200 μL pipette tip. Subsequently, the cells were treated with the PA at IC50 concentration, and the extent of cell migration was assessed by analyzing the wound area at 0th, 24th, and 48th h time intervals using ImageJ software (Wayne Rasband, USA).

IC50 ([1]; Homo sapiens, HepG2, 48 h)	IC50 ([2]; Homo sapiens, MCF7, 48 h)	IC50 ([1]; 48 h)	IC50 ([2]; 48 h)	IC50 [7]	logD [10]	IC50 [11]	Structure (SMILES)	IC50 ([3]; Homo sapiens, SiHa)	IC50 ([4]; Homo sapiens, CAL-27, 48 h)	IC50 [5]	clonogenic efficiency (colony formation) [6]	IC50 [3]	IC50 ([4]; 48 h)	acetylated Histone H3 levels (western blot) [8]	effect of ferric ammonium citrate (FAC) co-administration on cytotoxicity [9]	cell cycle progression [12]	intracellular dNTP levels [13]	early apoptosis ([14]; IC50 concentration)	early apoptosis ([14]; IC70 concentration)	wound area percentage [15]
> 100 µM	48.8 ± 12 µM	–	–	–	–	–	c1cnc2c(c1)ccc1cccnc12 [1,10-Phenanthroline]	42.9 ± 2.53 µM	53 ± 2.18 µM	> 100 µM	–	–	–	–	–	–	–	–	–	–
–	–	> 100 µM	> 100 µM	–	–	–	NC(=O)NO [HU, Hydroxyurea]	–	–	> 100 µM	–	> 100 µM	> 100 µM	–	–	–	–	–	–	–
> 100 µM	> 100 µM	–	–	10.8 µM	0.82	9.34 µM	O=C(CCCCCCC(=O)Nc1cc2cccnc2c2ncccc12)NO [PA, N^1-hydroxy-N^8-(1,10-phenanthrolin-5-yl)octanediamide]	16.4 ± 4.71 µM	51 ± 3.08 µM	> 100 µM	1.99%	–	–	dose-dependent increase in acetylated Histone H3 levels	FAC reduced PA cell toxicity in a concentration-dependent manner	increased the cell population at the S phase and a concentration-dependent elevation in the G2/M phase	marked decrease in intracellular dNTP levels	3.63%	2.58%	56.33%

Structure (SMILES)	IC50 ([1]; Homo sapiens, HepG2, 48 h)	IC50 ([2]; Homo sapiens, MCF7, 48 h)	IC50 ([1]; 48 h)	IC50 ([2]; 48 h)	IC50 [7]	logD [10]	IC50 [11]	IC50 ([3]; Homo sapiens, SiHa)	IC50 ([4]; Homo sapiens, CAL-27, 48 h)	IC50 [5]	clonogenic efficiency (colony formation) [6]	IC50 [3]	IC50 ([4]; 48 h)	acetylated Histone H3 levels (western blot) [8]	effect of ferric ammonium citrate (FAC) co-administration on cytotoxicity [9]	cell cycle progression [12]	intracellular dNTP levels [13]	early apoptosis ([14]; IC50 concentration)	early apoptosis ([14]; IC70 concentration)	wound area percentage [15]
CC(=O)N(O)CCCCCNC(=O)CCC(=O)N(O)CCCCCNC(=O)CCC(=O)N(O)CCCCCN [DFO, Deferoxamine]	> 100 µM	> 100 µM	–	–	–	–	–	71.5 ± 5.02 µM	46 ± 3.07 µM	> 100 µM	44.63%	–	–	–	–	–	–	–	–	–
